Experimental data: patent US4067986A, “Novel penicillanic acid” (Gist-Brocades N.V., priority 1974, dated 1978)
Converted amounts (≈) assume the structure as drawn.

Assays:
Format in all cases: cell-based
Proteus mirabilis L 93 = assay: MIC, agar serial dilution test; details: L93
[1] = system: Pseudomonas aeruginosa A 1058; assay: MIC, agar serial dilution test; details: A1058
[2] = system: Streptococcus haemolyticus A 1088; assay: MIC, agar serial dilution test; details: A1088
Haemophilus suis A 2096 [3] = assay: MIC, agar serial dilution test; details: A2096
Proteus rettgeri A 821 = assay: MIC, agar serial dilution test; details: Providencia rettgeri, A821
[4] = system: Pseudomonas aeruginosa H 10; assay: MIC, agar serial dilution test; details: H10
[5] = system: Pseudomonas aeruginosa 2396; assay: MIC, agar serial dilution test
[6] = system: Salmonella typhimurium R 172; assay: MIC, agar serial dilution test; details: Salmonella enterica
Proteus mirabilis H 3 = assay: MIC, agar serial dilution test; details: H3
[7] = system: Diplococcus pneumoniae L 54; assay: MIC, agar serial dilution test; details: Streptococcus pneumoniae, L54
Proteus mirabilis A 1200 = assay: MIC, agar serial dilution test; details: A1200
Haemophilus suis A 2096 [8] = assay: MIC, micro serial dilution test; details: A2096, micro serial dilution test (brackets)
[9] = system: Pasteurella multocida A 723; assay: MIC, agar serial dilution test; details: A723
[10] = system: Klebsiella pneumoniae A 809; assay: MIC, agar serial dilution test; details: A809
[11] = system: Streptococcus faecalis L 80; assay: MIC, agar serial dilution test; details: Enterococcus faecalis, L80

SMILES	MIC (Proteus mirabilis L 93) [µg/mL]	MIC [1] [µg/mL]	MIC [2] [µg/mL]	MIC (Haemophilus suis A 2096 [3]) [µg/mL]	MIC (Proteus rettgeri A 821) [µg/mL]	MIC [4] [µg/mL]	MIC [5] [µg/mL]	MIC [6] [µg/mL]	MIC (Proteus mirabilis H 3) [µg/mL]	MIC [7] [µg/mL]	MIC (Proteus mirabilis A 1200) [µg/mL]	MIC (Haemophilus suis A 2096 [8]) [µg/mL]	MIC [9] [µg/mL]	MIC [10] [µg/mL]	MIC [11] [µg/mL]
CC1(C)S[C@@H]2[C@H](NC(=O)[C@H](N)c3ccccc3)C(=O)N2[C@H]1C(=O)O [ampicillin]	3 (≈ 8.59 µM)	50 (≈ 143 µM)	0.75 (≈ 2.15 µM)	0.15 (≈ 0.429 µM)	3 (≈ 8.59 µM)	> 100	50 (≈ 143 µM)	3 (≈ 8.59 µM)	3 (≈ 8.59 µM)	0.05 (≈ 0.143 µM)	3 (≈ 8.59 µM)	–	–	–	–
CC1(C)S[C@@H]2[C@H](NC(=O)C(C(=O)O)c3ccccc3)C(=O)N2[C@H]1C(=O)O (stereo partly drawn) [carbenicillin]	0.5 (≈ 1.32 µM)	37 (≈ 97.8 µM)	0.1 (≈ 0.264 µM)	–	0.3 (≈ 0.793 µM)	–	–	6 (≈ 15.9 µM)	–	0.75 (≈ 1.98 µM)	–	0.2 (≈ 0.529 µM)	0.2 (≈ 0.529 µM)	> 100	25 (≈ 66.1 µM)
